The record followed here is publication PMC4921915 (Scientific Reports, 2016).

For the assay, the target named is T1, α1β3 GABAA receptor, 3α1:2β3 stoichiometry (α1 + β3, 30:1) (Homo sapiens, UniProt P14867+P28472).
T1 construct: gene GABRA1; full-length free subunits, cRNA ratio α1:β3 30:1, Xenopus laevis oocytes; heteropentamer; 'Human' printed for α1 and γ2, β3 implied by same sentence
T1 sequence (P14867 28-456): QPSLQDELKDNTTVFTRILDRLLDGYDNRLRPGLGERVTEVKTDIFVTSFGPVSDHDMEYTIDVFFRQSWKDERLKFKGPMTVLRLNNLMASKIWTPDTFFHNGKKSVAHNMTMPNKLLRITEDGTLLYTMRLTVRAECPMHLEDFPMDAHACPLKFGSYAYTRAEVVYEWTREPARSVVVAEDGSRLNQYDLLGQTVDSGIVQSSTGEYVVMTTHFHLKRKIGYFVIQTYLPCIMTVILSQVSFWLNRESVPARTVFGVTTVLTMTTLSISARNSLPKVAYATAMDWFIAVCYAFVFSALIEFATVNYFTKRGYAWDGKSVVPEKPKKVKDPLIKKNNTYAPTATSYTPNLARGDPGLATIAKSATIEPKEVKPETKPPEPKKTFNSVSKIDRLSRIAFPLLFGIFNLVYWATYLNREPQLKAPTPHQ
T1 sequence (P28472 26-473): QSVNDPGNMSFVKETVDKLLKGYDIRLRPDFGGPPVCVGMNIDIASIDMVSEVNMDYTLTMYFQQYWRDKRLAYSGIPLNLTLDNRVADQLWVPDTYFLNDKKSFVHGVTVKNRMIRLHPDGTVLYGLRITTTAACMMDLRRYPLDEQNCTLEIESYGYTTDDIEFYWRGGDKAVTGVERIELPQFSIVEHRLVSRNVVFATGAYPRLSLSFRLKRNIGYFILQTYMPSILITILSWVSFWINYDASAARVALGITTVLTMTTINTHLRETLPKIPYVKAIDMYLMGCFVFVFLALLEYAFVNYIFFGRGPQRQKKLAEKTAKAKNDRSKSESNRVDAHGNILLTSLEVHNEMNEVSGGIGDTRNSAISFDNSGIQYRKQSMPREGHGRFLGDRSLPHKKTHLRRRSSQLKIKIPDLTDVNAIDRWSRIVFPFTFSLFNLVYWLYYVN
Kind of assay: two-electrode voltage clamp, Xenopus oocytes. The class given is cell-based. The note with it: read-out: % inhibition at 1 μM. (In general: Two-electrode voltage clamp is typically applied to oocytes expressing channels or transporters.)

For the compound `CCOC(=O)c1ncn2c1CN(C)C(=O)c1cc(F)ccc1-2` [flumazenil, Ethyl 8-fluoro-5-methyl-6-oxo-5,6-dihydro-4H-benzo[f]imidazo[1,5-a][1,4]diazepine-3-carboxylate], the inhibition at 1 µM amounted to 95%.

The term inhibition denotes how much of the control response was suppressed.
